The target of this assay is T1, estrogen receptor alpha (ESR1) in MCF7 breast cancer cells (Homo sapiens, UniProt P03372).
T1 construct: endogenous in cells; host or cells: MCF7 breast cancer cells
T1 sequence (P03372 1-595): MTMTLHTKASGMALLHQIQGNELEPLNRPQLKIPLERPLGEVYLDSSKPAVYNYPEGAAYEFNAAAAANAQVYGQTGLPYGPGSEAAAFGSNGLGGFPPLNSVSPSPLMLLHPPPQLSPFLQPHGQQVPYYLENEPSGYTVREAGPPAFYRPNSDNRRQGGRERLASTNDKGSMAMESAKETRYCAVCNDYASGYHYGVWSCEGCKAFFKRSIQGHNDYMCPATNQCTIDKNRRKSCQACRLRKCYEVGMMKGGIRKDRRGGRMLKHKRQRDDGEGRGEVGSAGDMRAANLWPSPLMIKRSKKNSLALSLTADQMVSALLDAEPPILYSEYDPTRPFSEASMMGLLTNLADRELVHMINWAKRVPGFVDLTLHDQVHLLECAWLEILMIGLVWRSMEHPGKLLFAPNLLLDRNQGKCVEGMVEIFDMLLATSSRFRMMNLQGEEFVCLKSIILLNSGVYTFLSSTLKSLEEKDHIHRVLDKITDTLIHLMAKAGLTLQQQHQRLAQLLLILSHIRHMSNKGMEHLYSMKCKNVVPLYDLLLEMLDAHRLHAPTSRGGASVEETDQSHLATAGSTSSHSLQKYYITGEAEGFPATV
Nature of the assay: Breast Cancer Cell ERa High Content Fluorescence Imaging Assay (F10). The assay is classed as cell-based. The following applies: 4 hours, plateau of the maximal effect, DMSO and 5 nM Fulvestrant define 0% and 100% changes in ESR1. How it is done:
Breast Cancer Cell ERa High Content Fluorescence Imaging Assay (F10)
Cell plates were incubated at 37° C., for 4 hours. Fixation and permeabilization were carried out using a Biotek EL406 plate washer and dispenser as follows. […] Samples were incubated 30 minutes. Well contents was aspirated and 50 ul/well of Phosphate Buffered Saline (PBS) containing 0.5% w/v bovine serum albumen, 0.5% v/v Triton X-100 (Antibody Dilution Buffer) was added to each well. Samples were incubated for 30 minutes. Well contents were aspirated and washed 3 times with 100 ul/well of PBS. Immunofluorescence staining of estrogen receptor alpha (ESR1) was carried out using a Biotek EL406 plate washer and dispenser as follows. […] Samples were incubated for 2 hours at room temperature. Samples were washed 4 times with 100 ul/well of PBS. […] Samples were incubated for 2 hours at room temperature. Samples were washed 3 times with 100 ul/well of PBS using a Biotek EL406. Quantitative fluorescence imaging of ESR1 was carried out using a Cellomics Arrayscan V (Thermo). […] Channel 1 (DNA stain) was used to define the nuclear region (Circ). […] Data analysis was carried out using Genedata Screener Software, with DMSO and 5 nM Fulvestrant treated samples being used to define the 0% and 100% changes in ESR1. The “Robust Fit” method was used to define the inflexion point of curve (EC50) and the plateau of the maximal effect (Sinf).
As for `CC1=C(c2ccc(Cl)c(F)c2)C(c2ccc(OC[C@H](C)N3CC[C@@H](CF)C3)cc2)Oc2ccc(O)cc21` (stereo partly drawn) [Example 1, 3-(4-Chloro-3-fluorophenyl)-2-(4-((S)-2-((R)-3-(fluoromethyl)pyrrolidin-1-yl)propoxy)phenyl)-4-methyl-2H-chromen-6-ol], the “ER-alpha MCF7 HCS Sinf (%)” value is −91%.

As to `CC1=C(c2ccc(Cl)c(F)c2)C(c2ccc(OCCN3CC[C@@H](CF)C3)cc2)Oc2ccc(O)cc21` (some centres unmarked) [Example 2], the “ER-alpha MCF7 HCS Sinf (%)” value is on record as −95%.

For the compound `C#Cc1cc(O)cc(C2=C(C)c3cc(O)ccc3OC2c2ccc(OC[C@H](C)N3CC[C@@H](CF)C3)cc2)c1` (stereo partly drawn) [Example 3, 3-(3-Ethynyl-5-hydroxyphenyl)-2-(4-((S)-2-((R)-3-(fluoromethyl)pyrrolidin-1-yl)propoxy)phenyl)-4-methyl-2H-chromen-6-ol], the “ER-alpha MCF7 HCS Sinf (%)” value is −94%. On to `CC1=C(c2cccc(F)c2F)C(c2ccc(OCCN3CC(CF)C3)cc2)Oc2ccc(O)cc21` (centres unmarked) [Example 4, 3-(2,3-Difluorophenyl)-2-(4-(2-(3-(fluoromethyl)azetidin-1-yl)ethoxy)phenyl)-4-methyl-2H-chromen-6-ol], for which the “ER-alpha MCF7 HCS Sinf (%)” value is recorded as −98%. The same measure for `CC1=C(c2cccc(F)c2Cl)C(c2ccc(OCCN3CC(CF)C3)cc2)Oc2ccc(O)cc21` (centres unmarked) [Example 5]: −98%; for `CC1=C(c2ccc(F)cc2C)C(c2ccc(OCCN3CC(CF)C3)cc2)Oc2ccc(O)cc21` (centres unmarked) [Example 6, 3-(4-Fluoro-2-methylphenyl)-2-(4-(2-(3-(fluoromethyl)azetidin-1-yl)ethoxy)phenyl)-4-methyl-2H-chromen-6-ol]: −96%. The figure for `CC1=C(c2cc(F)ccc2C)C(c2ccc(OCCN3CC(CF)C3)cc2)Oc2ccc(O)cc21` (centres unmarked) [Example 7, 3-(5-Fluoro-2-methylphenyl)-2-(4-(2-(3-(fluoromethyl)azetidin-1-yl)ethoxy)phenyl)-4-methyl-2H-chromen-6-ol] is −99%.

For the compound `CC1=C(c2ccc(S(C)(=O)=O)cc2)C(c2ccc(OCCN3CC(CF)C3)cc2)Oc2ccc(O)cc21` (centres unmarked) [Example 8, 2-(4-(2-(3-(fluoromethyl)azetidin-1-yl)ethoxy)phenyl)-4-methyl-3-(4-(methylsulfonyl)phenyl)-2H-chromen-6-ol], the “ER-alpha MCF7 HCS Sinf (%)” value is reported as −90%.

For `CC1=C(c2cccc(S(C)(=O)=O)c2)C(c2ccc(OCCN3CC(CF)C3)cc2)Oc2ccc(O)cc21` (centres unmarked) [Example 9, 2-(4-(2-(3-(Fluoromethyl)azetidin-1-yl)ethoxy)phenyl)-4-methyl-3-(3-(methylsulfonyl)phenyl)-2H-chromen-6-ol], the “ER-alpha MCF7 HCS Sinf (%)” value is −99%.

On to `CC(=O)Nc1cccc(C2=C(C)c3cc(O)ccc3OC2c2ccc(OCCN3CC(CF)C3)cc2)c1` (centres unmarked) [Example 10, N-(3-(2-(4-(2-(3-(Fluoromethyl)azetidin-1-yl)ethoxy)phenyl)-6-hydroxy-4-methyl-2H-chromen-3-yl)phenyl)acetamide], for which the “ER-alpha MCF7 HCS Sinf (%)” value is −94%. With `CC(=O)Nc1ccc(C2=C(C)c3cc(O)ccc3OC2c2ccc(OCCN3CC(CF)C3)cc2)cc1` (centres unmarked) [Example 11, N-(4-(2-(4-(2-(3-(Fluoromethyl)azetidin-1-yl)ethoxy)phenyl)-6-hydroxy-4-methyl-2H-chromen-3-yl)phenyl)acetamide], the “ER-alpha MCF7 HCS Sinf (%)” value was −93%.

On to `CC1=C(c2cccc(NS(C)(=O)=O)c2)C(c2ccc(OCCN3CC(CF)C3)cc2)Oc2ccc(O)cc21` (centres unmarked) [Example 12, N-(3-(2-(4-(2-(3-(Fluoromethyl)azetidin-1-yl)ethoxy)phenyl)-6-hydroxy-4-methyl-2H-chromen-3-yl)phenyl)methanesulfonamide], for which the “ER-alpha MCF7 HCS Sinf (%)” value is listed as −93%. Turning to `CC1=C(c2ccc(NS(C)(=O)=O)cc2)C(c2ccc(OCCN3CC(CF)C3)cc2)Oc2ccc(O)cc21` (centres unmarked) [Example 13, N-(4-(2-(4-(2-(3-(Fluoromethyl)azetidin-1-yl)ethoxy)phenyl)-6-hydroxy-4-methyl-2H-chromen-3-yl)phenyl)methanesulfonamide], the “ER-alpha MCF7 HCS Sinf (%)” value was −68%. The figure for `CC1=C(c2cccc(C(N)=O)c2)C(c2ccc(OCCN3CC(CF)C3)cc2)Oc2ccc(O)cc21` (centres unmarked) [Example 14, 3-(2-(4-(2-(3-(Fluoromethyl)azetidin-1-yl)ethoxy)phenyl)-6-hydroxy-4-methyl-2H-chromen-3-yl)benzamide] is −97%; for `CC1=C(c2ccc(C(N)=O)cc2)C(c2ccc(OCCN3CC(CF)C3)cc2)Oc2ccc(O)cc21` (centres unmarked) [Example 15, 4-(2-(4-(2-(3-(Fluoromethyl)azetidin-1-yl)ethoxy)phenyl)-6-hydroxy-4-methyl-2H-chromen-3-yl)benzamide] it is −99%. With `CC1=C(c2ccc(CO)cc2)C(c2ccc(OCCN3CC(CF)C3)cc2)Oc2ccc(O)cc21` (centres unmarked) [Example 16, 2-(4-(2-(3-(Fluoromethyl)azetidin-1-yl)ethoxy)phenyl)-3-(4-(hydroxymethyl)phenyl)-4-methyl-2H-chromen-6-ol], the “ER-alpha MCF7 HCS Sinf (%)” value is listed as −99%. Take `CC1=C(c2cccc(CO)c2)C(c2ccc(OCCN3CC(CF)C3)cc2)Oc2ccc(O)cc21` (centres unmarked) [Example 17, 2-(4-(2-(3-(Fluoromethyl)azetidin-1-yl)ethoxy)phenyl)-3-(3-(hydroxymethyl)phenyl)-4-methyl-2H-chromen-6-ol]: the “ER-alpha MCF7 HCS Sinf (%)” value is −101%. The figure for `CC1=C(c2ccc(C#N)c(Cl)c2)C(c2ccc(OCCN3CC(CF)C3)cc2)Oc2ccc(O)cc21` (centres unmarked) [Example 18, 2-Chloro-4-(2-(4-(2-(3-(fluoromethyl)azetidin-1-yl)ethoxy)phenyl)-6-hydroxy-4-methyl-2H-chromen-3-yl)benzonitrile] is −99%; for `CC1=C(c2cc(F)cc(F)c2)[C@@H](c2ccc(OCCN3CC(CF)C3)cc2)Oc2ccc(O)cc21` [Example 19, (R)- and (S)-3-(3,5-Difluorophenyl)-2-(4-(2-(3-(fluoromethyl)azetidin-1-yl)ethoxy)phenyl)-4-methyl-2H-chromen-6-ol] it is −50%; for `CC1=C(c2cc(F)cc(F)c2)[C@H](c2ccc(OCCN3CC(CF)C3)cc2)Oc2ccc(O)cc21` [Example 20, (R)- and (S)-3-(3,5-Difluorophenyl)-2-(4-(2-(3-(fluoromethyl)azetidin-1-yl)ethoxy)phenyl)-4-methyl-2H-chromen-6-ol] it is −103%.

For the compound `CC1=C(c2cccc(O)c2)C(c2ccc(OCCN3CC(CF)C3)cc2)Oc2cc(Cl)c(O)cc21` (centres unmarked) [Example 26, 7-Chloro-2-(4-(2-(3-(fluoromethyl)azetidin-1-yl)ethoxy)phenyl)-3-(3-hydroxyphenyl)-4-methyl-2H-chromen-6-ol], the “ER-alpha MCF7 HCS Sinf (%)” value was −93%. Take `CC1=C(c2ccc(F)cc2)C(c2ccc(OCCN3CC(CF)C3)cc2)Oc2cc(C)c(O)cc21` (centres unmarked) [Example 29, 2-{4-[2-(3-Fluoromethyl-azetidin-1-yl)-ethoxy]-phenyl}-3-(4-fluoro-phenyl)-4,7-dimethyl-2H-chromen-6-ol]: the “ER-alpha MCF7 HCS Sinf (%)” value is −90%. For `CC1=C(c2ccc(F)cc2)C(c2ccc(OCCN3CC(CF)C3)cc2)Oc2cc(C#N)c(O)cc21` (centres unmarked) [Example 30, 2-{4-[2-(3-Fluoromethyl-azetidin-1-yl)-ethoxy]-phenyl}-3-(4-fluorophenyl)-6-hydroxy-4-methyl-2H-chromene-7-carbonitrile], the “ER-alpha MCF7 HCS Sinf (%)” value was −92%.

With `CC1=C(c2ccc(F)cc2Cl)C(c2ccc(OCCN3CC(CF)C3)cc2)Oc2ccc(O)cc21` (centres unmarked) [Example 32, 3-(2-chloro-4-fluoro-phenyl)-2-[4-[2-[3-(fluoromethyl)azetidin-1-yl]ethoxy]phenyl]-4-methyl-2H-chromen-6-ol], the “ER-alpha MCF7 HCS Sinf (%)” value was −99%. As for `CC1=C(c2ccc(F)c(C#N)c2)C(c2ccc(OCCN3CC(CF)C3)cc2)Oc2ccc(O)cc21` (centres unmarked) [Example 33, 2-fluoro-5-[2-[4-[2-[3-(fluoromethyl)azetidin-1-yl]ethoxy]phenyl]-6-hydroxy-4-methyl-2H-chromen-3-yl]benzonitrile], the “ER-alpha MCF7 HCS Sinf (%)” value is recorded as −96%. In the case of `CC1=C(c2ccc(F)c(C#N)c2)[C@@H](c2ccc(OCCN3CC(CF)C3)cc2)Oc2ccc(O)cc21` [Example 34, (R)-2-fluoro-5-(2-(4-(2-(3-(fluoromethyl)azetidin-1-yl)ethoxy)phenyl)-6-hydroxy-4-methyl-2H-chromen-3-yl)benzonitrile], the “ER-alpha MCF7 HCS Sinf (%)” value was −88%.

The record behind these values is US20160175284A1, “ESTROGEN RECEPTOR MODULATORS AND USES THEREOF” (Genentech, Inc., priority 2014, published 2016).
